Our source for the % of inhibition and % of control values is ChEMBL document CHEMBL5465560, “Selectivity Literature for EUbOPEN Chemogenomic Library” (2024).

The structures appear in SMILES notation.

Assay [1] concerns the target Receptor-type tyrosine-protein kinase FLT3 (Homo sapiens) (UniProt P36888). The experiment in a line: (§1) Selectivity interaction (SelectScreen profiling (Invitrogen)) EUB0000607a FLT3. The settings on record: at 2 µM.
The subject of assay [2] is T1, Receptor-type tyrosine-protein kinase FLT3 (Homo sapiens), P36888 [D835Y].
T1 sequence (whole entry): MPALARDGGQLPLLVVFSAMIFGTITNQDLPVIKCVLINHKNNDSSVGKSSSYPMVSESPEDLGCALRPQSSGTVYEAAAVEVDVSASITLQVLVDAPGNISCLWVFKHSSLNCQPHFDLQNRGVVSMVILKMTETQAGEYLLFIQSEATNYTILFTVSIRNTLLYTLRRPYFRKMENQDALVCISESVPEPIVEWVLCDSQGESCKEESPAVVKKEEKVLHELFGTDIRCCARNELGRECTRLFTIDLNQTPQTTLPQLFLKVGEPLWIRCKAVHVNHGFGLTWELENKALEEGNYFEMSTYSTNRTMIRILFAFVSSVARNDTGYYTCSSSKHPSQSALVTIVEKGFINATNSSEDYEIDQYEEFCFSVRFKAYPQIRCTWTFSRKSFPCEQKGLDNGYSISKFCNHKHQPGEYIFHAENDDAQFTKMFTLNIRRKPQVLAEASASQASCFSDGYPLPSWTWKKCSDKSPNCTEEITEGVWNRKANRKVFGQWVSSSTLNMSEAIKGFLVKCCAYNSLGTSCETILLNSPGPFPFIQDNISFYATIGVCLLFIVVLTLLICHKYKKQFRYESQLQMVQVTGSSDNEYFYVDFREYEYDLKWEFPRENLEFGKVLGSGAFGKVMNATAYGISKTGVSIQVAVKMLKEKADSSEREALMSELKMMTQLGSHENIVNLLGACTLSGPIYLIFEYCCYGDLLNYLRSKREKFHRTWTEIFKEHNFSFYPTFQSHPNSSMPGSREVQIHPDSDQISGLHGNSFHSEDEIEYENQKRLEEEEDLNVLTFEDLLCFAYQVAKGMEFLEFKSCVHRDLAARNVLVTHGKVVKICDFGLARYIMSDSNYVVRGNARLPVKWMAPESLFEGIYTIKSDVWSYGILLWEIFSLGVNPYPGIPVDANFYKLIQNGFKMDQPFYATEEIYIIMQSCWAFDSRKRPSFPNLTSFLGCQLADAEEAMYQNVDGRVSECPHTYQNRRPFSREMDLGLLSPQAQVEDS
The description is as §1. The settings on record: at 2 µM.

For assay [3], the target named is T2, Mitogen-activated protein kinase 15 (Homo sapiens) (UniProt Q8TD08).
T2 sequence (whole entry): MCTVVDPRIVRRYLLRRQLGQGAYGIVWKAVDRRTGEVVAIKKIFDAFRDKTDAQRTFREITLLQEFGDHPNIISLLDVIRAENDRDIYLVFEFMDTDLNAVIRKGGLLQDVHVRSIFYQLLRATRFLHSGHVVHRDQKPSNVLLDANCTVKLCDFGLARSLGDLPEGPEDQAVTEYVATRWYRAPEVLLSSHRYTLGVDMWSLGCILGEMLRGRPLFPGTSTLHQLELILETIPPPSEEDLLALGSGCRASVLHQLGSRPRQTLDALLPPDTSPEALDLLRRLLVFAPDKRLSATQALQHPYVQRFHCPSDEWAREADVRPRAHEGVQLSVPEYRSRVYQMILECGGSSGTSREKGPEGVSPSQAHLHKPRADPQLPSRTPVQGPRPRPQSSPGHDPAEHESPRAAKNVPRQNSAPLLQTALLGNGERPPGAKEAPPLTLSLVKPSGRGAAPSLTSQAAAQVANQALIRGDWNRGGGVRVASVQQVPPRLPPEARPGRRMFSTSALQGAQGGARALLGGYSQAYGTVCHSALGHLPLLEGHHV
The assay can be described thus: Selectivity interaction (KinomeScan (DiscoverX)) EUB0000607a MAPK15. The settings on record: at 10 µM.

Assay [4] addresses Serine/threonine-protein kinase PAK 6 (Homo sapiens) (UniProt Q9NQU5). The assay can be described thus: Selectivity interaction (KinomeScan (DiscoverX)) EUB0000655a PAK6. The settings on record: at 10 µM.
The target of assay [5] is Tyrosine-protein kinase Lck (Homo sapiens, UniProt P06239). The experiment in a line: Selectivity interaction (KinomeScan (DiscoverX)) EUB0001079a LCK. The settings on record: at 1 µM.
Tyrosine-protein kinase Lck, sequence (P06239 2-509 limits assumed): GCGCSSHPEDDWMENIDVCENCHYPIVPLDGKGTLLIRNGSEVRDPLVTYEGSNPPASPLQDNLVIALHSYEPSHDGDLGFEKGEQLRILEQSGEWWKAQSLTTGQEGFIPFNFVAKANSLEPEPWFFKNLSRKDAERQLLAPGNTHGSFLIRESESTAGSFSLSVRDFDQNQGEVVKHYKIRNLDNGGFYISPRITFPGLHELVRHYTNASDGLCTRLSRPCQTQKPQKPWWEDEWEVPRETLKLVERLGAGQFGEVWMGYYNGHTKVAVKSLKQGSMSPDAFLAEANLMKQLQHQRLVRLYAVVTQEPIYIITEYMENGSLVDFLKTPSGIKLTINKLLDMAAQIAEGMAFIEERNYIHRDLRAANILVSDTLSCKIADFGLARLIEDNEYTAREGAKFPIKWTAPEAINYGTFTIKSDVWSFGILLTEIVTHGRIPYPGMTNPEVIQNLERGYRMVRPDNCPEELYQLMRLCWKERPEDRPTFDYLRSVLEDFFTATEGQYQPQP
Assay [6] has as its target Vascular endothelial growth factor receptor 2 (Homo sapiens, UniProt P35968). The experiment in a line: Selectivity interaction (KinomeScan (DiscoverX)) EUB0000695a KDR. The settings on record: at 100 nM.
The target of assay [7] is Receptor-type tyrosine-protein kinase FLT3 (Homo sapiens) (UniProt P36888). The experiment in a line: (§2) Selectivity interaction (ProQinase) EUB0000171b FLT3.
The subject of assay [8] is T1, Receptor-type tyrosine-protein kinase FLT3 (Homo sapiens), P36888 [D835Y]. Described as §2.
Assay [9] has as its target Ribosomal protein S6 kinase alpha-6 (Homo sapiens, UniProt Q9UK32). The experiment in a line: Selectivity interaction (KinomeScan (DiscoverX)) EUB0000045b RPS6KA6. The settings on record: at 10 µM.
The target in assay [10] is T3, Serine/threonine-protein kinase Nek9 (Homo sapiens) (UniProt Q8TD19).
T3 sequence (whole entry): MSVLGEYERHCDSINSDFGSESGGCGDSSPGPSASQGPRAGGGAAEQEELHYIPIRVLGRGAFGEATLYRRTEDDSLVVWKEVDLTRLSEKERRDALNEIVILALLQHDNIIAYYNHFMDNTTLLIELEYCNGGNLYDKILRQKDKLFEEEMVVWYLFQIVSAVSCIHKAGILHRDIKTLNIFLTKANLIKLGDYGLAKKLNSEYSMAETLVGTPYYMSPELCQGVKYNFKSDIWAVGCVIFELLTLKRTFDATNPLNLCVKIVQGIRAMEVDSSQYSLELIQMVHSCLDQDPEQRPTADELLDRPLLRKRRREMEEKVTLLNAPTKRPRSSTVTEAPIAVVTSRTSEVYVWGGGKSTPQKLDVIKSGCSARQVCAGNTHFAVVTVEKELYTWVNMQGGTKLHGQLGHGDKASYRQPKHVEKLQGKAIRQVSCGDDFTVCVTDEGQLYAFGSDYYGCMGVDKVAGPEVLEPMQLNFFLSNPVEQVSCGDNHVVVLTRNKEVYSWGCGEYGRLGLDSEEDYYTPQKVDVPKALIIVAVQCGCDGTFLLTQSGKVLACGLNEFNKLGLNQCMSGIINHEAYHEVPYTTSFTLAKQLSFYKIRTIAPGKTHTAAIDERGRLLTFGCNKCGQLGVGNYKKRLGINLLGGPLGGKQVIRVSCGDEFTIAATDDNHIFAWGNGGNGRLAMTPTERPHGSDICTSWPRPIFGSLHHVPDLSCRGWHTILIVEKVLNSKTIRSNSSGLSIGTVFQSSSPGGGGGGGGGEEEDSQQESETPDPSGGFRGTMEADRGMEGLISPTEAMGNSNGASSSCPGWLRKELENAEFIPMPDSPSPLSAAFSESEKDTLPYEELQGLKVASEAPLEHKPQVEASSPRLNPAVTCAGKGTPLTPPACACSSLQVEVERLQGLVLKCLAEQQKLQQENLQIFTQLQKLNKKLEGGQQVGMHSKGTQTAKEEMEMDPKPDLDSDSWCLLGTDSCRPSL
The assay can be described thus: Selectivity interaction (KinomeScan (DiscoverX)) EUB0000618a NEK9. The settings on record: at 10 µM.

Serine/threonine-protein kinase PAK 6 (Homo sapiens), sequence (Q9NQU5 whole entry, looked up): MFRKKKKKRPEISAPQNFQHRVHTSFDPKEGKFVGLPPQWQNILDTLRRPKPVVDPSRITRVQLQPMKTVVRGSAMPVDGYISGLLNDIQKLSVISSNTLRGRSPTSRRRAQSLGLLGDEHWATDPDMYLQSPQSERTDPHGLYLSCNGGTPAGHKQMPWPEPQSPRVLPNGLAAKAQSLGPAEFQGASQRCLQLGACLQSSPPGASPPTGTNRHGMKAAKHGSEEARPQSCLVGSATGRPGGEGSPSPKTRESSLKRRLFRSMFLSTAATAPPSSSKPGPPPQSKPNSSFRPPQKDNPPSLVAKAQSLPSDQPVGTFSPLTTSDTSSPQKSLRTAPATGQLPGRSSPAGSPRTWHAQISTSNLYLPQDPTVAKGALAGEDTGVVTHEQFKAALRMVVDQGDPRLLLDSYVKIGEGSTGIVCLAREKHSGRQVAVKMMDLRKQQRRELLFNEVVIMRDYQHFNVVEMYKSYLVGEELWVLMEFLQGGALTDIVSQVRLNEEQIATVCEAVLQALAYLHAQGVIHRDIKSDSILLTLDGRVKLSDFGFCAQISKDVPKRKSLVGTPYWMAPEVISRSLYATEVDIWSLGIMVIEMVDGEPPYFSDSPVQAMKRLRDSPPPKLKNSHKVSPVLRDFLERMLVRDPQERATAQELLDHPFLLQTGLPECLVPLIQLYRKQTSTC
Ribosomal protein S6 kinase alpha-6, sequence (Q9UK32 whole entry): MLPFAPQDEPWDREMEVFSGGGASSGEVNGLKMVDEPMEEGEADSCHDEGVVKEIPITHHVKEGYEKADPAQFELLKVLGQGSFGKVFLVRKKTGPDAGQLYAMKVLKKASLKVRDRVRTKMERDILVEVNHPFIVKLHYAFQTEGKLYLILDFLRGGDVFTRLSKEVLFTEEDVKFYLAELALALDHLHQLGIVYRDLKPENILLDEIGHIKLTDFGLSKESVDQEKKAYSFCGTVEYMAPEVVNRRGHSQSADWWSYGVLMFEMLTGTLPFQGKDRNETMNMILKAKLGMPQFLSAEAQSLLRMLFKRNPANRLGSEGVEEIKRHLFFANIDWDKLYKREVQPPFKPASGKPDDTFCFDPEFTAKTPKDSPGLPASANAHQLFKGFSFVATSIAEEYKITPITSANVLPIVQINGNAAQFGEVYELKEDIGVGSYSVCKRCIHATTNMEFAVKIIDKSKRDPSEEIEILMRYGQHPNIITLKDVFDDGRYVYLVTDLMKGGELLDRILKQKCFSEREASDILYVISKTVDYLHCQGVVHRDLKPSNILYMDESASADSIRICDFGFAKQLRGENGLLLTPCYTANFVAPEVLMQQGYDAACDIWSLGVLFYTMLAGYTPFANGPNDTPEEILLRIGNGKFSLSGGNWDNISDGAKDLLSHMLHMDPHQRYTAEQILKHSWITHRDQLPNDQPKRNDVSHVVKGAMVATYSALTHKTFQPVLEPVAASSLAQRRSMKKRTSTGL
Vascular endothelial growth factor receptor 2, sequence (P35968 whole entry): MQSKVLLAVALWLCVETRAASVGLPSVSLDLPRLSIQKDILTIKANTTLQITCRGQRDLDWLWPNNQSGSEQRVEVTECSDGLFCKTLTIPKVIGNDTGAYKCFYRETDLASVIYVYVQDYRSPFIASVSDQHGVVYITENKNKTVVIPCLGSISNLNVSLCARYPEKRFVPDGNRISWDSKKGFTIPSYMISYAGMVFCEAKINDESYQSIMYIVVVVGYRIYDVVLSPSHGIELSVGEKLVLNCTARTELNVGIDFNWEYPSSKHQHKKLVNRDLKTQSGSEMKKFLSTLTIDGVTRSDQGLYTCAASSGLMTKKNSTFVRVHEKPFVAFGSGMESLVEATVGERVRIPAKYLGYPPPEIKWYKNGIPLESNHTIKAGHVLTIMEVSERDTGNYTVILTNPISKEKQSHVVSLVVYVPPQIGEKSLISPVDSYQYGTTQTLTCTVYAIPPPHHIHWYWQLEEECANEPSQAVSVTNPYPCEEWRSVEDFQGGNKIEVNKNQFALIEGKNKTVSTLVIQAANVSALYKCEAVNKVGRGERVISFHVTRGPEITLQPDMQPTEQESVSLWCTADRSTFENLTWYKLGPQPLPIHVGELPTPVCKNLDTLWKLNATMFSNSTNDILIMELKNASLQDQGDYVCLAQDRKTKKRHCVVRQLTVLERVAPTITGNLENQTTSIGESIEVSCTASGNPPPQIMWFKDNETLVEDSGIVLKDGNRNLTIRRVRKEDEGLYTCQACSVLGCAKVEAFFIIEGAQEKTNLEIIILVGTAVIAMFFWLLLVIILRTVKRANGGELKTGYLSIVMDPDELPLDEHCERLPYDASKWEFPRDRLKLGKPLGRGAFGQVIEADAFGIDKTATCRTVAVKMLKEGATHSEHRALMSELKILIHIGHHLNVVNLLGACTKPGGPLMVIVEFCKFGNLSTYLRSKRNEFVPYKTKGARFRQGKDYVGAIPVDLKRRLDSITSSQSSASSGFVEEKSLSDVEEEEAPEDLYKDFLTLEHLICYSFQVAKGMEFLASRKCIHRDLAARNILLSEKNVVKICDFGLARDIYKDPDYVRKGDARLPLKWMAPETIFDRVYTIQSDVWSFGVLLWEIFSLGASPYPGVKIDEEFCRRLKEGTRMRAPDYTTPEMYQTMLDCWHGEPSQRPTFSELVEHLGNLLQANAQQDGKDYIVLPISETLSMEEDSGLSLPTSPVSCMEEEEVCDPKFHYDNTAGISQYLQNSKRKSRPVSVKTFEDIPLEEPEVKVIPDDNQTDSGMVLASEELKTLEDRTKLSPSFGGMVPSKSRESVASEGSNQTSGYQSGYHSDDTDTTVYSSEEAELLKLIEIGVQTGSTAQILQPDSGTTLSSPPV

With `CNC(=O)Nc1ccc(-c2nc(N3CC4CCC(C3)O4)c3cnn(C4CCC5(CC4)OCCO5)c3n2)cc1`, the % of inhibition is 17% in assay [1] and 7% in assay [2]. The compound further had a % of control in assay [3] of 25%.
Compound `CN(C)CCOc1ccc(-c2nc(-c3ccncc3)c(-c3ccc4c(c3)CC/C4=N\O)[nH]2)cc1` yielded a % of control in [4] of 100%.
Compound `Nc1cnc(N2CCc3cc(S(=O)(=O)Nc4c(F)cc(Cl)cc4F)cc(N4CCCC4=O)c32)nc1` [TP-020n] had a % of control in assay [5] of 100%.
In assay [6], `Cc1cc(F)c(C(=O)Nc2cccc(-c3nncn3C(C)C)n2)cc1-n1cnc(C2CC2)c1` displayed a % of control of 100%.
Consider `C=CC(=O)Nc1cccc(C(=O)Nc2ccc(Nc3cc(-c4[nH]c(SC)nc4C)ccn3)cc2)c1`, for which the % of control in assay [7] (at 1 µM) turned out to be 78%; in assay [7] (at 5 µM), 49%; in [8] (at 1 µM) it was 65%; in assay [8] (at 5 µM), 32%.
Turning to `C=CC(=O)Nc1cc(-n2c(=O)ccc3cnc4ccc(-c5ccc(NS(C)(=O)=O)cc5)cc4c32)ccc1C`, the % of control in [9] was 88%.
Take `O[C@H]1CC[C@H](Nc2ncc3nc(Nc4c(F)cc(F)cc4F)n([C@H]4CCOC4)c3n2)CC1`: the % of control in [10] was 100%.
